Data taken from publication PMC4585962, “A peptide factor secreted by Staphylococcus pseudintermedius exhibits properties of both bacteriocins and virulence factors” (Scientific Reports, 2015).
No end group written: not given here. *: point of attachment. For = O=C*

What was measured:
[1] = system: Staphylococcus intermedius R-2725; experiment: MIC, microdilution assay; type: cell-based; conditions: broth microdilution (CLSI), MHB, overnight 37 °C, OD 600 nm; mean of three independent measurements
Procedure: (§1) The microbicidal activity of BacSp222 was determined using the microdilution method in compliance with Clinical and Laboratory Standards Institute (CLSI, for bacteria) guidelines M7-A7[57] and in compliance with the European Committee on Antimicrobial Susceptibility Testing - Subcommittee on Antifungal Susceptibility Testing (EUCAST-AFST, for fungi)[58]. Briefly, the microorganisms were cultivated in dedicated liquid media to reach the early exponential phase or, in the case of Streptococcus spp., grown overnight on agar MHB supplemented with 2.5% (v/v) lysed horse blood (LHB). Subsequently, the microorganisms were diluted to 1 × 10^6 CFU/ml (estimated using an Eddy Jet 2 automatic spiral plater, IUL) in MHB; in MHB supplemented with 5% (v/v) LHB (for streptococci); or, in the case of Candida albicans, in RPMI-1640 medium (Thermo) without L-Glu and phenol red, supplemented with 0.6 g/l L-Glu, 34.53 g/l 3-(N-morpholino)propanesulphonic acid and 18 g/l glucose, pH 7.0. Fifty microliters of microorganism suspension were mixed with an equal volume of appropriate medium containing serial 2- or 1.5-fold dilutions of BacSp222. After the cultures were incubated overnight at 37 °C, the optical density (OD) at 600 nm was measured. The minimal inhibitory concentration (MIC), calculated as a mean value from three independent measurements, was defined as the minimum peptide concentration for which an increase in OD was not observed compared to uninoculated broth.

[2] = system: Staphylococcus pseudintermedius LMG 22219; experiment: MIC, microdilution assay; type: cell-based; conditions: nonproducer strain; broth microdilution (CLSI), MHB, overnight 37 °C, OD 600 nm; mean of three independent measurements
Procedure: as §1

[3] = system: Staphylococcus pseudintermedius 222; experiment: MIC, microdilution assay; type: cell-based; conditions: bacteriocin-producing strain; broth microdilution (CLSI), MHB, overnight 37 °C, OD 600 nm; mean of three independent measurements
Procedure: as §1

[4] = system: Streptococcus pyogenes PCM 465; experiment: MIC, microdilution assay; type: cell-based; conditions: broth microdilution (CLSI), MHB with 5% lysed horse blood, overnight 37 °C, OD 600 nm; mean of three independent measurements
Procedure: as §1

[5] = system: B. subtilis; experiment: Bactericidal test, plating on TSA after incubation; type: cell-based, Bacillus subtilis; conditions: 1 × 10^4 CFU incubated with 1 μM bacteriocin for 30 minutes (data not shown)
[6] = system: E. coli DH5α (pALCP2G); experiment: GFP release assay; type: cell-based, Escherichia coli; conditions: 2 × 10^6 CFU in PBS, 1 h 37 °C, 0.23 to 15 μM BacSp222, fluorescence of supernatant 480/510 nm
Procedure: The bacteria transformed with GFP-encoding plasmids (pCN68[59] for S. aureus RN4220; pALCP2G[60] for B. subtilis 1A751[61] and E. coli DH5α) were grown overnight in TSB supplemented with appropriate antibiotics, washed twice and finally suspended in PBS. Fifty microliters of the suspensions containing 2 × 10^6 CFU of bacteria were then incubated for 1 h at 37 °C with serial dilutions of BacSp222 at concentrations ranging from 0.23 to 15 μM. Then, the bacteria were spun down, and the fluorescence in the supernatant was determined (Synergy H1 microplate reader, BioTek, 480/510 nm excitation/emission wavelengths). As the controls for 100% GFP release, S. aureus and B. subtilis were lysed using lysostaphin and chicken egg white lysozyme (Sigma), respectively, whereas the E. coli cells were disrupted by ultrasonication.

Question: Which results are given for “For-MAGLLRFLLSKGRALYNWAKSHVGKVWEWLKSGATYEQIKEWIENALGWR [BacSp222]”?
Answer: MIC ± SD [1]: 1.20 ± 0.24 µM; MIC ± SD [2]: 0.16 µM; MIC ± SD [3]: 2.1 µM; MIC ± SD [4]: 7.8 µM; colonies after plating on TSA [5]: complete absence of the colonies; leakage of GFP from recombinant cells [6]: not
